Test results published in patent US20240140991A1, “ANTIBIOTIC NATURAL PRODUCT ANALOGUES” (THE QUEEN'S UNIVERSITY OF BELFAST, priority 2021, published 2024).
Converted amounts (≈) assume the structure as drawn. Positions of bridges follow the written chain, without caps; N, C: chain ends. Non-standard residues stand in square brackets, D forms with d. Residues, ends and D or L forms follow the SMILES beside them. ξ: configuration not given here. *: point of attachment. Palmitoyl = CCCCCCCCCCCCCCCC(=O)*; Hexanoyl(4ξ-Me) = CCC(C)CCC(=O)*; Myristoyl = CCCCCCCCCCCCCC(=O)*; Lauroyl = CCCCCCCCCCCC(=O)*; Decanoyl = CCCCCCCCCC(=O)*; dOrn = NCCC[C@@H](N)C(=O)O; Octanoyl = CCCCCCCC(=O)*; Orn = NCCC[C@H](N)C(=O)O; Dap = NC[C@H](N)C(=O)O; Alloc = C=CCOC(=O)*

Assays:
[1] = tested on: Escherichia coli ATCC 25922; format: cell-based; settings: ATCC 25922
Outline: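 Broth microdilution in MHB per CLSI; inoculum 2×10^5 CFU mL^−1 from log-phase TSB cultures at OD600 0.5. Plates incubated 16 hours at 37° C with shaking at 220 rpm. MIC is the lowest concentration preventing visible growth.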

[2] = tested on: K. pneumoniae ATCC 11228; format: cell-based, Klebsiella pneumoniae; settings: ATCC 11228
Experimental: (§1) Minimum inhibitory concentration (MIC) was determined by broth microdilution according to CLSI guidelines. Blood agar plates were inoculated with glycerol stocks of Escherichia coli ATCC 25922, E. coli ATCC 25922 MCR-1, E. coli MCR-1 (clinical isolate from Utrecht Medical Center, NL), E. coli EQAS MCR-2 (clinical isolate from Wageningen University and Research, NL), Kiebsielia pneumoniae ATCC 11228, K. pneumoniae ATCC 13883, K. pneumonia 2048 (clinical isolate from Vrije Universiteit Amsterdam Medical Center, NL), K. pneumonia JS-123 (clinical isolate from Utrecht Medical Center, NL), Acinetobacter baumannii ATCC 17961, A. baumannil ATCC 17978, A. baumannii 2018-006 (clinical isolate from Rijksinstituut voor Volksgezondheid en Milieu, NL), A. baumannii MDR (clinical isolate from Vrije Universiteit Amsterdam Medical Center, NL), Pseudomonas aeruginosa ATCC 27853, P. aeruginosa PAO1, P. aeruginosa NRZ-03961 (Reference strain from Das Nationale Referenzzentrum für gramnegative Krankenhauserreger, DE), P. aeruginosa M-120 (clinical isolate from Leiden University Medical Center, NL) and Staphylococcus aureus USA300 (clinical isolate from Texas Children's Hospitalm, USA). E. coli 25922 MCR1 was grown on LB agar supplemented with kanamycin. The inoculated agar plates were then incubated for 16 hours at 37° C. Individually grown colonies were subsequently used to inoculate 3 mL aliquots of TSB that were then incubated at 37° C. with shaking at 220 rpm. In parallel, the compounds to be assessed were serially diluted with Mueller-Hinton broth (MHB) in polypropylene 96-well plates (50 μL in each well). Once the OD600 of the bacterial suspensions reached 0.5, the bacteria were diluted with MHB (final concentration 2×10^5 CFU mL^−1) and added to the microplates containing the test compounds (50 μL to each well, final volume: 100 μL). The well-plates were sealed with an adhesive membrane and after 16 hours of incubation at 37° C. with shaking at 220 rpm the wells were visually inspected for bacterial growth. MIC values were defined as the lowest concentration of the compound that prevented visible growth of bacteria.

[3] = tested on: A. baumannii ATCC 17978; format: cell-based, Acinetobacter baumannii; settings: ATCC 17978
Experimental: as §1

[4] = tested on: P. aeruginosa PAO1; format: cell-based, Pseudomonas aeruginosa; settings: PAO1
Experimental: as §1

[5] = tested on: E. Coli NCTC 12241; format: cell-based
Experimental: as §1
were tested for inhibition of E. Coli NCTC 12241.

[6] = tested on: E. coli; format: cell-based
Experimental: as §1
MIC values were determined for the lipid analogues of brevicidine.
MIC values were determined for the position 9 analogues of linear brevicidine.

Minimum inhibitory concentration (MIC) [1] [µg/mL]	Minimum inhibitory concentration (MIC) [2] [µg/mL]	Minimum inhibitory concentration (MIC) [3] [µg/mL]	Minimum inhibitory concentration (MIC) [4] [µg/mL]	E. coli MIC [5] [µg/mL]	E. coli MIC [6] [µg/mL]	SMILES
1 to 2	1 (≈ 0.618 µM)	1 (≈ 0.618 µM)	1 to 2	–	–	CCCCCCCCCC(=O)N[C@H](CO)C(=O)N[C@H](Cc1ccc(O)cc1)C(=O)N[C@H](Cc1c[nH]c2ccccc12)C(=O)N[C@H](CCCN)C(=O)N[C@@H](CCCN)C(=O)NCC(=O)N[C@H](CCCN)C(=O)N[C@@H](Cc1c[nH]c2ccccc12)C(=O)N[C@@H]1C(=O)N[C@@H]([C@@H](C)CC)C(=O)N[C@@H](CC(N)=O)C(=O)NCC(=O)NCC(=O)O[C@@H]1C [Compound C10] (Decanoyl-[dS][dY][dW][dOrn][Orn]G[dOrn]WTINGG; ester 9-C)
4 (≈ 2.43 µM)	2 to 4	2 (≈ 1.21 µM)	4 (≈ 2.43 µM)	–	–	CCCCCCCCCCCC(=O)N[C@H](CO)C(=O)N[C@H](Cc1ccc(O)cc1)C(=O)N[C@H](Cc1c[nH]c2ccccc12)C(=O)N[C@H](CCCN)C(=O)N[C@@H](CCCN)C(=O)NCC(=O)N[C@H](CCCN)C(=O)N[C@@H](Cc1c[nH]c2ccccc12)C(=O)N[C@@H]1C(=O)N[C@@H]([C@@H](C)CC)C(=O)N[C@@H](CC(N)=O)C(=O)NCC(=O)NCC(=O)O[C@@H]1C [Compound C12] (Lauroyl-[dS][dY][dW][dOrn][Orn]G[dOrn]WTINGG; ester 9-C)
8 (≈ 4.78 µM)	8 (≈ 4.78 µM)	4 (≈ 2.39 µM)	8 (≈ 4.78 µM)	–	–	CCCCCCCCCCCCCC(=O)N[C@H](CO)C(=O)N[C@H](Cc1ccc(O)cc1)C(=O)N[C@H](Cc1c[nH]c2ccccc12)C(=O)N[C@H](CCCN)C(=O)N[C@@H](CCCN)C(=O)NCC(=O)N[C@H](CCCN)C(=O)N[C@@H](Cc1c[nH]c2ccccc12)C(=O)N[C@@H]1C(=O)N[C@@H]([C@@H](C)CC)C(=O)N[C@@H](CC(N)=O)C(=O)NCC(=O)NCC(=O)O[C@@H]1C [Compound C14] (Myristoyl-[dS][dY][dW][dOrn][Orn]G[dOrn]WTINGG; ester 9-C)
64 (≈ 37.6 µM)	32 (≈ 18.8 µM)	4 to 8	64 (≈ 37.6 µM)	–	–	CCCCCCCCCCCCCCCC(=O)N[C@H](CO)C(=O)N[C@H](Cc1ccc(O)cc1)C(=O)N[C@H](Cc1c[nH]c2ccccc12)C(=O)N[C@H](CCCN)C(=O)N[C@@H](CCCN)C(=O)NCC(=O)N[C@H](CCCN)C(=O)N[C@@H](Cc1c[nH]c2ccccc12)C(=O)N[C@@H]1C(=O)N[C@@H]([C@@H](C)CC)C(=O)N[C@@H](CC(N)=O)C(=O)NCC(=O)NCC(=O)O[C@@H]1C [Compound C16] (Palmitoyl-[dS][dY][dW][dOrn][Orn]G[dOrn]WTINGG; ester 9-C)
32 (≈ 21.8 µM)	>64	>64	64 (≈ 43.7 µM)	–	–	CC[C@H](C)[C@@H]1NC(=O)[C@@H](NC(=O)[C@H](Cc2c[nH]c3ccccc23)NC(=O)[C@@H](CCCN)NC(=O)CNC(=O)[C@H](CCCN)NC(=O)[C@@H](CCCN)NC(=O)[C@@H](Cc2c[nH]c3ccccc23)NC(=O)[C@@H](Cc2ccc(O)cc2)NC(=O)[C@H](N)CO)[C@@H](C)OC(=O)CNC(=O)CNC(=O)[C@H](CC(N)=O)NC1=O [NH2] (H-[dS][dY][dW][dOrn][Orn]G[dOrn]WTINGG; ester 9-C)

Second part, the compound before the results:

SMILES	Minimum inhibitory concentration (MIC) [1] [µg/mL]	Minimum inhibitory concentration (MIC) [2] [µg/mL]	Minimum inhibitory concentration (MIC) [3] [µg/mL]	Minimum inhibitory concentration (MIC) [4] [µg/mL]	E. coli MIC [5] [µg/mL]	E. coli MIC [6] [µg/mL]
CCC(C)CCC(=O)N[C@H](CC(N)=O)C(=O)N[C@H](Cc1ccc(O)cc1)C(=O)N[C@H](Cc1c[nH]c2ccccc12)C(=O)N[C@H](CCCN)C(=O)N[C@@H](CCCN)C(=O)NCC(=O)N[C@H](CCCN)C(=O)N[C@@H](Cc1c[nH]c2ccccc12)C(=O)N[C@@H](C)C(=O)N[C@H](C(=O)NCC(=O)O)[C@@H](C)CC (stereo partly shown) [MeHex- Ala OH] ({Hexanoyl(4ξ-Me)}-[dN][dY][dW][dOrn][Orn]G[dOrn]WAIG-OH)	–	–	–	–	50	–
C=CCOC(=O)NC[C@H](NC(=O)[C@H](Cc1c[nH]c2ccccc12)NC(=O)[C@@H](CCCN)NC(=O)CNC(=O)[C@H](CCCN)NC(=O)[C@@H](CCCN)NC(=O)[C@@H](Cc1c[nH]c2ccccc12)NC(=O)[C@@H](Cc1ccc(O)cc1)NC(=O)[C@@H](CC(N)=O)NC(=O)CCC(C)CC)C(=O)N[C@H](C(=O)NCC(N)=O)[C@@H](C)CC (stereo partly shown) [MeHex- Dap(Alloc) NH2] ({Hexanoyl(4ξ-Me)}-[dN][dY][dW][dOrn][Orn]G[dOrn]W[Dap](Alloc)IG-NH2)	–	–	–	–	0.19	–
C=CCOC(=O)NC[C@H](NC(=O)[C@H](Cc1c[nH]c2ccccc12)NC(=O)[C@@H](CCCN)NC(=O)CNC(=O)[C@H](CCCN)NC(=O)[C@@H](CCCN)NC(=O)[C@@H](Cc1c[nH]c2ccccc12)NC(=O)[C@@H](Cc1ccc(O)cc1)NC(=O)[C@@H](CC(N)=O)NC(=O)CCC(C)CC)C(=O)N[C@H](C(=O)NCC(=O)O)[C@@H](C)CC (stereo partly shown) [MeHex- Dap(Alloc) OH] ({Hexanoyl(4ξ-Me)}-[dN][dY][dW][dOrn][Orn]G[dOrn]W[Dap](Alloc)IG-OH)	–	–	–	–	1.6	–
C=CCOC(=O)NC[C@H](NC(=O)[C@H](Cc1c[nH]c2ccccc12)NC(=O)[C@@H](CCCN)NC(=O)CNC(=O)[C@H](CCCN)NC(=O)[C@@H](CCCN)NC(=O)[C@@H](Cc1c[nH]c2ccccc12)NC(=O)[C@@H](Cc1ccc(O)cc1)NC(=O)[C@@H](CC(N)=O)NC(=O)CCCCCCC)C(=O)N[C@H](C(=O)NCC(N)=O)[C@@H](C)CC [Oct Dap(Alloc) NH2] (Octanoyl-[dN][dY][dW][dOrn][Orn]G[dOrn]W[Dap](Alloc)IG-NH2)	–	–	–	–	0.4	–
CCCCCCCC(=O)N[C@H](CC(N)=O)C(=O)N[C@H](Cc1ccc(O)cc1)C(=O)N[C@H](Cc1c[nH]c2ccccc12)C(=O)N[C@H](CCCN)C(=O)N[C@@H](CCCN)C(=O)NCC(=O)N[C@H](CCCN)C(=O)N[C@@H](Cc1c[nH]c2ccccc12)C(=O)N[C@@H](C)C(=O)N[C@H](C(=O)NCC(=O)O)[C@@H](C)CC [Oct- Ala OH] (Octanoyl-[dN][dY][dW][dOrn][Orn]G[dOrn]WAIG-OH)	–	–	–	–	25	–
C=CCOC(=O)NC[C@H](NC(=O)[C@H](Cc1c[nH]c2ccccc12)NC(=O)[C@@H](CCCN)NC(=O)CNC(=O)[C@H](CCCN)NC(=O)[C@@H](CCCN)NC(=O)[C@@H](Cc1c[nH]c2ccccc12)NC(=O)[C@@H](Cc1ccc(O)cc1)NC(=O)[C@@H](CC(N)=O)NC(=O)CCCCCCC)C(=O)N[C@H](C(=O)NCC(=O)O)[C@@H](C)CC [Oct- Dap(Alloc) OH] (Octanoyl-[dN][dY][dW][dOrn][Orn]G[dOrn]W[Dap](Alloc)IG-OH)	–	–	–	–	12.5	–
CCC(C)CCC(=O)N[C@H](CC(N)=O)C(=O)N[C@H](Cc1ccc(O)cc1)C(=O)N[C@H](Cc1c[nH]c2ccccc12)C(=O)N[C@H](CCCN)C(=O)N[C@@H](CCCN)C(=O)NCC(=O)N[C@H](CCCN)C(=O)N[C@@H](Cc1c[nH]c2ccccc12)C(=O)N[C@@H](CN)C(=O)N[C@H](C(=O)NCC(N)=O)[C@@H](C)CC (stereo partly shown) [Und(9-Dap)-NH2] ({Hexanoyl(4ξ-Me)}-[dN][dY][dW][dOrn][Orn]G[dOrn]W[Dap]IG-NH2)	–	–	–	–	3.1	3.1
